Reference: patent US8227610B2, “Compositions and methods for producing cellular labels for nuclear magnetic resonance techniques” (Carnegie Mellon University, priority 2007, dated 2012)

Experiments:
[1] = Critical micelle concentration estimated from light scattering intensity and particle size; assay type: physicochemical; parameters: critical micell concentration (CMC): unit not given here
Description: FIG. 1. PFPE amide 1 emulsified with Pluronic™ F68 by sonication in 1×HBSS buffer. Emulsion was diluted in 1×HBSS and particle size measured by Dynamic Light Scattering (DLS). Data represents average of two independent measurements, (mean±SD). Critical micelle concentration (CMC) of PFPE amide 1 is 22.2 mg/mL, in presence of 21.6 mol % F68 and 1×HBSS buffer, was estimated from the intersection of the graph of two curves. Measurements performed on Zetasizer Nano (Malvern, UK).
Pluronic™ F68 was dissolved in aqueous buffer (HBSS, Hyclone) at 150 mg/mL. PFPE amide 1 was added at 152 mg/mL, and the mixture (250 μL) was placed in an 1.5 mL Eppendorf vial and sonicated (at 20 W and 20 kHz) at room temperature for 30 seconds. The emulsion was then diluted 1:3 in 1×HBSS and the particle size was measured by dynamic light scattering in Malvern Zetasizer Nano within 1 h. The molar ratio of PFPE amide 1 to F68 was 4.6:1. The polydispersity (PDI) was 0.12 to 0.19 and the average particle size 200 nm. The critical micellar concentrations (CMC) for the PFPE amide 1 and F68 was estimated by plotting the light scattering intensity and average diameter and looking for the curve intersection, as shown in FIG. 1.

dendritic cells [2] = test: PFPE uptake in dendritic cells measured by 19F NMR; assay type: cell-based, mouse; details: 3 h incubation
Description: (§1) Labeling mouse dendritic cells was performed according to published methods with minor modifications^35. Dendritic cells were plated in 6-well plates, 1−2×10^6/well, and allowed to attach overnight. A PFPE diethyl amide 1/L35 emulsion was mixed with 0.3 mL of serum free media, incubated for 30 min at room temperature, and then added to the cells. After a 3 h incubation at 37° C., the cell labeling medium was removed and cells were washed three times with 1×PBS, detached by trypsinization, washed, and resuspended in 0.5 mL of complete media containing 10% FBS. A portion of the cell suspension (1/10) was used for cell number estimates by Cell Titer Glo. The cells were pelleted\ and resuspended in 0.1 mL of media for ^19F NMR measurements to assess the cell loading.
When dendritic cells were used, the cell suspension (0.1 mL) was mixed with 100 ul of 1% TFA solution in glycerol as a calibrated ^19F reference. The two solutions were mixed well and transferred into a 5 mm NMR tube. Cell uptake was calculated from the relative areas under the peak at −91.5 ppm (PFPE main peak) and the TFA internal standard peak at −76 ppm. Cellular uptake (i.e., the parameter Fc) was calculated as the mean number of fluorine atoms per single viable cell.

dendritic cells [3] = test: Cell number and viability of labeled dendritic cells by Cell Titer Glo; assay type: cell-based, mouse; details: after labeling
Description: In the examples given below, cellular number was estimated using the commercial assay Cell Titer Glo (Promega). The assay implementation is easy and highly reproducible. A correlation curve was constructed for each labeling experiment at the day of experiment using the same cell culture. When testing the viability post-labeling, a small sample (50 μL) was taken from labeled cell suspension and mixed with Cell Titer Glo reagent in triplicate. Luminescence was measured within 10 minutes and the viable cell number was estimated from a linear correlation curve prepared on the day of experiment.
as §1

Substance	critical micelle concentration (CMC) ([1]; 1×HBSS)	critical micell concentration (CMC) ([1]; PFPE-tyramide 6/F68 24:1, thin film method, water)	uptake in DCs by 19F NMR (in words) (dendritic cells [2])	cell viability / toxicity in DCs (in words) (dendritic cells [3])
Perfluoropolyether diethyl amide [PFPE amide 1]	22.2 mg/mL			
Perfluoropolyether tyramide [PFPE tyramide 6]		4.5	comparable to the cell labeling experiments that were facilitated with protamine sulfate	non-toxic over various doses
